# System: 192522-019-R-J2-PDC complex tumor spheroid viability
# Experiment: Anticancer human tumor 192522-019-R-J2-PDC patient-derived colon adenocarcinoma cell line growth inhibition [POLQ]
# Details: for IC50: curve of first compound; for viability, T/C: stronger effect = lower value
# Method in brief: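 Complex spheroid viability model combining PDC tumour cells with endothelial (HUVEC) and MSC stromal cells. Novobiocin, ART-558 or RP6685 were tested singly and in combination with standard and investigational anticancer drugs. Each was titrated in half-log steps from near clinical Cmax, or from 10 microM where Cmax was unknown.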
# 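Also: spheroids exposed to drugs for seven days before reading.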
# 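For viability, T/C in this document: 100% = DMSO vehicle control viability in luminescence.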
structure (smiles),measurement,setting,value
COc1ccc([C@@H](O)c2cc(-c3ncnc4cc(N5CCOCC5)ccc34)c(F)cc2Cl)nn1 + Nc1ccc(C#CCN(C(=O)Cc2ncc(C(F)(F)F)cc2C(F)(F)F)c2ccc(F)cc2)nn1,IC50,second compound 0.0316 µM,> 10 µM
same,IC50,second compound 0.1 µM,> 10 µM
same,IC50,second compound 0.316 µM,> 10 µM
same,IC50,second compound 1 µM,> 10 µM
same,IC50,second compound 3.16 µM,> 10 µM
same,IC50,second compound 10 µM,> 10 µM
same,"viability, T/C","second compound 0.0316 µM, first compound 0.0316 µM",116%
same,"viability, T/C","second compound 0.0316 µM, first compound 0.1 µM",97.3%
same,"viability, T/C","second compound 0.0316 µM, first compound 0.316 µM",93.7%
same,"viability, T/C","second compound 0.0316 µM, first compound 1 µM",85.8%
same,"viability, T/C","second compound 0.0316 µM, first compound 3.16 µM",75.8%
same,"viability, T/C","second compound 0.0316 µM, first compound 10 µM",55.4%
same,"viability, T/C","second compound 0.1 µM, first compound 0.0316 µM",106%
same,"viability, T/C","second compound 0.1 µM, first compound 0.1 µM",97.4%
same,"viability, T/C","second compound 0.1 µM, first compound 0.316 µM",98.7%
same,"viability, T/C","second compound 0.1 µM, first compound 1 µM",90.1%
same,"viability, T/C","second compound 0.1 µM, first compound 3.16 µM",86.2%
same,"viability, T/C","second compound 0.1 µM, first compound 10 µM",65.5%
same,"viability, T/C","second compound 0.316 µM, first compound 0.0316 µM",100%
same,"viability, T/C","second compound 0.316 µM, first compound 0.1 µM",101%
same,"viability, T/C","second compound 0.316 µM, first compound 0.316 µM",102%
same,"viability, T/C","second compound 0.316 µM, first compound 1 µM",102%
same,"viability, T/C","second compound 0.316 µM, first compound 3.16 µM",75.3%
same,"viability, T/C","second compound 0.316 µM, first compound 10 µM",59.9%
same,"viability, T/C","second compound 1 µM, first compound 0.0316 µM",102%
same,"viability, T/C","second compound 1 µM, first compound 0.1 µM",104%
same,"viability, T/C","second compound 1 µM, first compound 0.316 µM",98.1%
same,"viability, T/C","second compound 1 µM, first compound 1 µM",90.8%
same,"viability, T/C","second compound 1 µM, first compound 3.16 µM",93.2%
same,"viability, T/C","second compound 1 µM, first compound 10 µM",75%
same,"viability, T/C","second compound 3.16 µM, first compound 0.0316 µM",107%
same,"viability, T/C","second compound 3.16 µM, first compound 0.1 µM",101%
same,"viability, T/C","second compound 3.16 µM, first compound 0.316 µM",99%
same,"viability, T/C","second compound 3.16 µM, first compound 1 µM",93.6%
same,"viability, T/C","second compound 3.16 µM, first compound 3.16 µM",84.1%
same,"viability, T/C","second compound 3.16 µM, first compound 10 µM",65.9%
same,"viability, T/C","second compound 10 µM, first compound 0.0316 µM",104%
same,"viability, T/C","second compound 10 µM, first compound 0.1 µM",111%
same,"viability, T/C","second compound 10 µM, first compound 0.316 µM",102%
same,"viability, T/C","second compound 10 µM, first compound 1 µM",102%
same,"viability, T/C","second compound 10 µM, first compound 3.16 µM",82%
same,"viability, T/C","second compound 10 µM, first compound 10 µM",73.2%

# From PubChem BioAssay AID1963850 (Molecular Pharmacology Branch, DTP, NCI, 2024)
